Test results published in ChEMBL document CHEMBL3526118, “Combination of GSH trapping and time-dependent inhibition assays as a predictive method of drugs generating highly reactive metabolites” (Drug Metab Dispos, 2011).

Legend:
[1] = system: Liver microsome; experiment: Metabolic activation in human liver microsomes assessed as [3H]GSH adduct formation rate measured per mg of protein at 100 uM by [3H]GSH trapping assay
[2] = system: Liver microsome; experiment: Covalent binding in human liver microsomes measured per mg of protein using radiolabelled compound at 10 uM after 1 hr incubation by liquid scintillation counting
[3] = molecular target: CYP2C19 (Homo sapiens, UniProt P33261); experiment: in vitro
CYP2C19, sequence (P33261 whole entry): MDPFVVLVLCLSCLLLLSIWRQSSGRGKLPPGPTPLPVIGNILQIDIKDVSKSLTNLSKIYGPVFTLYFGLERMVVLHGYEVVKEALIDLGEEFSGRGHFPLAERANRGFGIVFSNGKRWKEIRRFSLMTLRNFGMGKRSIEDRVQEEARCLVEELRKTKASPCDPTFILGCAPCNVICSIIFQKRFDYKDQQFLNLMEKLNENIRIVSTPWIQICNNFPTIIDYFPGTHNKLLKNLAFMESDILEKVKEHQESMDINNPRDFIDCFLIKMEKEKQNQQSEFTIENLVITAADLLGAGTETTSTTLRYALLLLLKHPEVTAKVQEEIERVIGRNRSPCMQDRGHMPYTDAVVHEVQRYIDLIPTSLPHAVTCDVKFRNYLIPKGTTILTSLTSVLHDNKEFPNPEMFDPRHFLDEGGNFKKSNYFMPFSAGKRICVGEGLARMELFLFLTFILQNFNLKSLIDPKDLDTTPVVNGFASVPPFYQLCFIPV

[4] = molecular target: T1, CYP2B6 (Homo sapiens, UniProt P20813); experiment: in vitro
T1 sequence (P20813 whole entry): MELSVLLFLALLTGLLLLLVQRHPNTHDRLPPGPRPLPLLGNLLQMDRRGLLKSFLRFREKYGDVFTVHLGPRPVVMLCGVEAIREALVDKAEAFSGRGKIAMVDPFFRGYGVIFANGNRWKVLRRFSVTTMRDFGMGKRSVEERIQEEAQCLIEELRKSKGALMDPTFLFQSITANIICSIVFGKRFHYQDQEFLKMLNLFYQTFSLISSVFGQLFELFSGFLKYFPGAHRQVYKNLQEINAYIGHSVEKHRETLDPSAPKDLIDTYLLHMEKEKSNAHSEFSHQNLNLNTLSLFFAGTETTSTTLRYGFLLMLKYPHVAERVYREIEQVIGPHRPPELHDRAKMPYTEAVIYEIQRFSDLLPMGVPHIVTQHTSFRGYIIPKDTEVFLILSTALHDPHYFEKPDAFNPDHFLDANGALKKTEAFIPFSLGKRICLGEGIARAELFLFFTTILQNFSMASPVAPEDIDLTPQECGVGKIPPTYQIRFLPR

[5] = molecular target: T2, CYP1A2 (Homo sapiens, UniProt P05177); experiment: in vitro
T2 sequence (P05177 whole entry): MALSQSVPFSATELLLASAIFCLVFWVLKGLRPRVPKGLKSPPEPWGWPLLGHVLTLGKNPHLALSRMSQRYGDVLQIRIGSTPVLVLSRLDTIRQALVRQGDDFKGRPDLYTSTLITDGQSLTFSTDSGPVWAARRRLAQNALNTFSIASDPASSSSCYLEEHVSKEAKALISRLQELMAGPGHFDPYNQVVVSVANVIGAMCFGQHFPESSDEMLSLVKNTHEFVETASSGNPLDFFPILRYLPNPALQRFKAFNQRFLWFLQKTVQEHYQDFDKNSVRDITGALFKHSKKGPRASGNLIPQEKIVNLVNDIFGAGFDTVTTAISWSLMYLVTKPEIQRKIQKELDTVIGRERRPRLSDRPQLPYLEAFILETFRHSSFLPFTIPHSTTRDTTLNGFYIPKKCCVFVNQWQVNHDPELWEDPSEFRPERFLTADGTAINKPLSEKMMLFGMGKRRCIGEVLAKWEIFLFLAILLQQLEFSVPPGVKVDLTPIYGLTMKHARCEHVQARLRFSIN

[6] = molecular target: T3, CYP2C8 (Homo sapiens, UniProt P10632); experiment: in vitro
T3 sequence (P10632 whole entry): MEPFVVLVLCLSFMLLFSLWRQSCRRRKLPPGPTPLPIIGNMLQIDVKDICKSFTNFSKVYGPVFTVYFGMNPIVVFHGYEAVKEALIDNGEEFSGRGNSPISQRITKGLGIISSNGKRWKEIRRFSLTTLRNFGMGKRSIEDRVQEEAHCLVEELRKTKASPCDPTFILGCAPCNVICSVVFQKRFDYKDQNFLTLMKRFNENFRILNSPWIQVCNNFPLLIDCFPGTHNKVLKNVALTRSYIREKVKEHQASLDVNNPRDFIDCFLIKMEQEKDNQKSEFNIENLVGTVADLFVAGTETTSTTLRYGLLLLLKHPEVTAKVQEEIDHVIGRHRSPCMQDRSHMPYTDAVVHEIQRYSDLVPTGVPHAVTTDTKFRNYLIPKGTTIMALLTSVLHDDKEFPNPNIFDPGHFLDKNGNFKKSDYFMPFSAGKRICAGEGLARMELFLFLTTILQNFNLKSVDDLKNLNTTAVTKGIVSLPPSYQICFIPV

[7] = molecular target: CYP2D6 (Homo sapiens, UniProt P10635); experiment: in vitro
CYP2D6, sequence (P10635 whole entry): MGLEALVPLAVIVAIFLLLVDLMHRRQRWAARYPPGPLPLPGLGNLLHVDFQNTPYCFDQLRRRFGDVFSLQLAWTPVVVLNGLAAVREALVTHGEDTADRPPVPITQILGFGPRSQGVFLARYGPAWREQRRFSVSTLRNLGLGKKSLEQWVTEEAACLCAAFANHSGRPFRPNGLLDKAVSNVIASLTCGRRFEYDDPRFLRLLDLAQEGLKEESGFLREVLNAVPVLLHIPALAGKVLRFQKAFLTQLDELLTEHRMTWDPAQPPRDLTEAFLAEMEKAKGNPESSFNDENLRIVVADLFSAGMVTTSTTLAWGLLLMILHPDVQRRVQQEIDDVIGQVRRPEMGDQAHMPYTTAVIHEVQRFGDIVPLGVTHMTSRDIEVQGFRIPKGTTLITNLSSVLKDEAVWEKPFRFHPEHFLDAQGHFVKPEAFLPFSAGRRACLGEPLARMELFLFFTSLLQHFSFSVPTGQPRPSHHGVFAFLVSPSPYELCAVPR

[8] = molecular target: CYP2C9 (Homo sapiens, UniProt P11712); experiment: in vitro
CYP2C9, sequence (P11712 whole entry): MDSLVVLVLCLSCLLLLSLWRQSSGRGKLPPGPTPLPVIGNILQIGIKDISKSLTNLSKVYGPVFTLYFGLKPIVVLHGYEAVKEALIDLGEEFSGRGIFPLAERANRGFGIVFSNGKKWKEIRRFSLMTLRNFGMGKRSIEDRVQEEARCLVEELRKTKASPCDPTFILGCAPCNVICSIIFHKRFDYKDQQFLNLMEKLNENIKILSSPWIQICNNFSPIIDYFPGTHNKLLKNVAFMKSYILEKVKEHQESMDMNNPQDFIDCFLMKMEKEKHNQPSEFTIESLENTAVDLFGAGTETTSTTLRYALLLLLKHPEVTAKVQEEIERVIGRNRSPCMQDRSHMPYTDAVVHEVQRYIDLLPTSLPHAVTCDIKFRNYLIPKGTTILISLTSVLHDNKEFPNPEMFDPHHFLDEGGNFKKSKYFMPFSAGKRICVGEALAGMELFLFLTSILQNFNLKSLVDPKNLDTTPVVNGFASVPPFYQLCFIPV

[9] = molecular target: CYP3A4 (Homo sapiens, UniProt P08684); experiment: in vitro
CYP3A4, sequence (P08684 whole entry): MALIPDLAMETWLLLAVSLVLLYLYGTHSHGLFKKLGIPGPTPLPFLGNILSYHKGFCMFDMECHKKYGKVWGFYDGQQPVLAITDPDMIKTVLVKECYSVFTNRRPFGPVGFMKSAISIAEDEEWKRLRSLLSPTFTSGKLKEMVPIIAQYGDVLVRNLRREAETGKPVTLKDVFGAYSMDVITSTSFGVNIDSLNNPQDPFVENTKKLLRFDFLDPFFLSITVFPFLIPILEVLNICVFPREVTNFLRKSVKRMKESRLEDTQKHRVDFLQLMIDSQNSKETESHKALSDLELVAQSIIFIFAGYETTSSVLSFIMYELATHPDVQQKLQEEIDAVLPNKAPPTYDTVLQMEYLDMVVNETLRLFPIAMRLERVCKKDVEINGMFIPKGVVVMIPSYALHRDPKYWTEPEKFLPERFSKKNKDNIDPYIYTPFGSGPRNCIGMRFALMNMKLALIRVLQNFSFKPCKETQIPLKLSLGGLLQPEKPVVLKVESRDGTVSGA

Row | Compound | Drug metabolism [1] | PB [2] [pmol] | inhibition at 100 µM ([3]; human liver microsomes) [%] | inhibition at 100 µM [4] [%] | inhibition at 100 µM [5] [%] | inhibition at 100 µM [6] [%] | inhibition at 100 µM [7] [%] | inhibition at 100 µM [8] [%] | inhibition at 100 µM [9] [%] | inhibition at 100 µM ([3]; microsomes) [%]
1 | CCCCC(=O)N(Cc1ccc(-c2ccccc2-c2nnn[nH]2)cc1)[C@H](C(=O)O)C(C)C | metabolite_not_detected | 1.4 | < 10 | < 10 | < 10 | < 10 | < 10 | < 10 | < 10 | –
2 | COc1ccc(CCN(C)CCCC(C#N)(c2ccc(OC)c(OC)c2)C(C)C)cc1OC (stereo not given) | – | – | – | 10 | < 10 | < 10 | < 10 | < 10 | 51 | < 10
3 | Cc1c(N(C)C)c(=O)n(-c2ccccc2)n1C [AMINOPYRINE] | metabolite_not_detected | 30.9 | – | < 10 | < 10 | < 10 | < 10 | < 10 | < 10 | < 10
4 | CC(C)c1c(C(=O)Nc2ccccc2)c(-c2ccccc2)c(-c2ccc(F)cc2)n1CC[C@@H](O)C[C@@H](O)CC(=O)O [ATORVASTATIN] | 12.7 pmol/min | 352.3 | – | < 10 | – | < 10 | – | – | – | –
5 | Cn1c(=O)c2c(ncn2C)n(C)c1=O [CAFFEINE] | metabolite_not_detected | 9.9 | < 10 | < 10 | < 10 | < 10 | < 10 | < 10 | < 10 | –
6 | CN1CCN(C2=Nc3cc(Cl)ccc3Nc3ccccc32)CC1 [CLOZAPINE] | – | – | – | < 10 | 12 | < 10 | < 10 | < 10 | – | –
7 | COc1cc2c(cc1OC)C(=O)C(CC1CCN(Cc3ccccc3)CC1)C2 (stereo not given) [DONEPEZIL] | metabolite_not_detected | 29.7 | – | – | – | – | – | – | – | –
8 | NS(=O)(=O)c1cc(C(=O)O)c(NCc2ccco2)cc1Cl [FUROSEMIDE] | – | – | – | < 10 | – | < 10 | – | – | – | –
9 | CN(C)CCCN1c2ccccc2CCc2ccccc21 [IMIPRAMINE] | – | – | – | < 10 | < 10 | < 10 | < 10 | < 10 | < 10 | –
10 | C[C@H]1COc2c(N3CCN(C)CC3)c(F)cc3c(=O)c(C(=O)O)cn1c23.C[C@H]1COc2c(N3CCN(C)CC3)c(F)cc3c(=O)c(C(=O)O)cn1c23.O [LEVOFLOXACIN] | metabolite_not_detected | – | < 10 | < 10 | < 10 | < 10 | < 10 | < 10 | – | –
11 | CCCc1nc(C(C)(C)O)c(C(=O)O)n1Cc1ccc(-c2ccccc2-c2nnn[nH]2)cc1 [OLMESARTAN] | metabolite_not_detected | 3.4 | < 10 | < 10 | < 10 | < 10 | < 10 | < 10 | < 10 | –
12 | CCN(CC)CCNC(=O)c1ccc(N)cc1 [PROCAINAMIDE] | 41.3 pmol/min | 5.1 | – | < 10 | < 10 | < 10 | < 10 | < 10 | < 10 | –
13 | Cc1cc(NS(=O)(=O)c2ccc(N)cc2)no1 [SULFAMETHOXAZOLE] | – | – | – | < 10 | – | < 10 | – | – | – | –
14 | CCCC(CCC)C(=O)O [VALPROIC ACID] | – | – | – | < 10 | < 10 | < 10 | < 10 | < 10 | < 10 | –
